Test system: primary hepatocytes
Test: Primary hepatocyte cultures; α-fetoprotein/albumin immunostaining and Giemsa morphology
Type: cell-based, mice
Details: for oval cell population (Giemsa) / α-fetoprotein (AFP) expression vs control: 10^−5 M, three week old primary cultures, no cytokines
Procedure: Three intact livers were harvested from 3 week old VLVC female mice (Harlan Laboratories, Jerusalem, Israel), dissected and washed twice with DMEM (Beit Haemek, Israel), incubated with DMEM in the presence 0.05% collagenase for 30 minutes at 37° C., ground and passed through a 200 μm mesh sieve, yielding individual hepatocytes. Cells were washed twice and viability was ascertained with trypan blue. Cells were plated in collagen-coated, 35 mm tissue culture plates at a density of 4-×10^4 live cells/ml in F12 media (containing 15 mM Hepes, 0.1% glucose, 10 mM sodium bicarbonate, 100 units/ml penicillin-streptomycin, glutamine, 0.5 units/ml insulin, 7.5 m cg/ml hydrocortisone, and 10% fetal bovine serum). Medium was changed after 12 hours, the cells were washed twice with phosphate buffered saline (PBS) and new medium was added. Medium was changed twice a week.
Hepatocytes were also grown in the presence of Epidermal Growth Factor (EGF), Platelet-Derived Growth Factor β chain (PDGF-BB), Fibroblast growth Factors (FGF4) and Hepatocyte Growth Factor (HGF), at 20-50 ng/ml each, for the entire culturing period according to the method of Schwartz et al. (Schwartz R E, Reyes M, Koodie L, Jiang Y, Blackstad M, Lund T, Lenvik T, Johnson S, Hu W S, Verfaillie C M. Multipotent adult progenitor cells from bone marrow differentiate into functional hepatocyte-like cells. J Clin Invest. 2002; 109 (10): 1291-302). Hepatocytes were also grown in serum free medium according to the method of Runge et al. (Runge D, Runge D M, Jager D, Lubecki K A, Beer Stolz D, Karathanasis S, Kietzmann T, Strom S C, Jungermann K, Fleig W E, Michalopoulos G K. Serum-free, long-term cultures of human hepatocytes: maintenance of cell morphology, transcription factors, and liver-specific functions. Biochem Biophys Res Commun. 2000; 269(1): 46-53).
In all of the above-mentioned hepatocytes culture conditions, cells are grown in the presence or absence of the retinoic acid antagonist AGN 194310 at concentrations ranging from 10^−5 M to 10^−9 M.
After a period of 3 weeks, cultures treated with 10^−5 M antagonist were detached with 0.25% trypsin, split and replated at a 1:2 ratio. The cells were either immunostained as described below, or visualized with Giemsa staining.
Murine hepatocyte cultures supplemented with EGF and HGF were evaluated as primary cultures, or following first and second passages. First passage cultures were grown for 2 weeks, split 1:2 and immunostained 8 days later for the presence of albumin, as described below. Second passage cultures were similarly grown for 2 weeks, split 1:2, and grown for an additional week, then split 1:4 and similarly immunostained 4 days later.
Ex-vivo expanded cells and hepatocytes were stained with Giemsa stain, according to manufacturer's instructions (Shandon, Pittsburg, Pa.) for 4 minutes at room temperature, washed in buffer solution for 4 minutes and washed 3-4 times with rinse solution.
Hepatocytes were probed for expression of α-fetoprotein (AFP) using a rabbit polyclonal antibody raised against a recombinant protein of human origin that cross-reacts with AFP from mouse (H-140 Santa Cruz Technology, Santa Cruz, Calif.), and albumin using a rabbit antiserum to mouse albumin (Cappel-ICN, Aurora, Ohio). Cells were fixed in methanol at −20° C. for 10 minutes, rinsed with PBS for 5 minutes, and permeabilized with 0.1% triton-X (Sigma, Jerusalem, Israel) in PBS for 5 minutes. The cells were then washed with Tris buffer saline (TBS) for 5 minutes and incubated with 1% bovine serum albumin (BSA) in PBS for 10 minutes. Endogeneous peroxidases were inactivated by incubation with peroxidase block (Envision, Dako, Carpinteria, Calif.) for 5 minutes, at room temperature. Cells were incubated with antibodies raised in rabbit against mouse albumin (at a dilution of 1:100); or against α-fetoprotein (at a dilution of 1:25) for 30 minutes. […]

[1] = listed as retinoic acid antagonist

CCc1ccc(C2=CC(C)(C)Sc3ccc(C#Cc4ccc(C(=O)O)cc4)cc32)cc1 [AGN 194310, 4-[[4-(4-ethylphenyl)-2,2-dimethyl-(2H)-thiochroman-6-yl]-ethynyl]benzoic acid]
number of hepatocytes in second passage cultures vs controls (10^−5 M to 10^−7 M, second passage, EGF and HGF supplemented): Significantly greater numbers of hepatocytes
oval cell population (Giemsa): marked increase
α-fetoprotein (AFP) expression vs control: marked increase
oval cell population (Giemsa) [1]: large population
α-fetoprotein (AFP) expression vs control [1]: increase
oval cells in first passage cultures (first passage, EGF and HGF supplemented): numerous islets of oval cells
α-fetoprotein staining (three weeks old primary cultures supplemented with EGF and HGF): Significant strong AFP staining

— US7955852B2, “Expansion of renewable stem cell populations” (Gamida Cell Ltd., priority 2002, dated 2011)
